Assay results taken from article PMC2728224 (Cancer Chemotherapy and Pharmacology, 2009).
pKi: −log10 of the molar value.

Target: T1, dihydrofolate reductase (DHFR) (Homo sapiens, UniProt P00374)
T1 sequence (P00374 1-187): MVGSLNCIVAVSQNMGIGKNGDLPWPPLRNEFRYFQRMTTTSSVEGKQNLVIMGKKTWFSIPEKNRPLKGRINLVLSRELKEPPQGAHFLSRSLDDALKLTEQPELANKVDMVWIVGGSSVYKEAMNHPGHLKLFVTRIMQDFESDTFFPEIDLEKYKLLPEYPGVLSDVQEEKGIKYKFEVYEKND
Experiment: spectrophotometric DHFR activity assay
Type: biochemical

C#CCC(Cc1cnc2nc(N)nc(N)c2n1)c1ccc(C(=O)NC(CCC(=O)O)C(=O)O)cc1 (racemic) [pralatrexate]
pKi: 7.35
